Assay results from patent US20240197891A1, “PHARMACEUTICAL COMPOSITIONS COMPRISING POH DERIVATIVES” (UNIVERSITY OF SOUTHERN CALIFORNIA, priority 2021, published 2024).

What was measured:
[1] = test system: TMZ sensitive (U251) cells; test: Colony forming assay, TMZ sensitive U251 cells; assay type: cell-based, human; details: TMZ sensitive U251 cells
Experimental: (§1) Colony forming assays were carried out after cells were treated with TMZ alone, POH alone, and the TMZ-POH conjugate. […] Cancer Lett. 2011 Mar. 28; 302(2):100-8.

[2] = test system: TMZ resistant (U251TR) U251 cells; test: Colony forming assay, TMZ resistant U251TR cells; assay type: cell-based, human
Experimental: as §1

[3] = test system: USC-04 glioma cancer stem cells; test: MTT cytotoxicity assay, USC-04 glioma cancer stem cells; assay type: cell-based; details: USC-04; increasing concentrations (TMZ 0-400 uM; POH 0-2 mM)
Text: (§2) Cancer Lett. 2011 Mar. 28; 302(2):100-8.

[4] = test system: USC-02 glioma cancer stem cells; test: MTT cytotoxicity assay, USC-02 glioma cancer stem cells; assay type: cell-based; details: USC-02; increasing concentrations (TMZ 0-400 uM; POH 0-2 mM)
Text: as §2

[5] = test system: cyclobutane pyrimidine dimers (CPD) and pyrimidine (6-4) pyrimidone photoproducts (6-4PP); test: DNA damage (6-4PP and CPD) in UV exposed mouse skin; assay type: in vivo; details: skin DNA following UV exposure
Text: FIGS. 26A and 26B show the DNA damage that occurs following UV exposure with and without POH-LA conjugate treatment. Upon euthanasia of animals, skin tissues were collected from the back of the animals, fixed in formalin, and processed for analysis. Absorption of ultraviolet (UV) light produces two predominant types of DNA damage, cyclobutane pyrimidine dimers (CPD) and pyrimidine (6-4) pyrimidone photoproducts (6-4PP). UV DNA Damage standards for comparison to UV exposed mouse skin extracted DNA were used. Both the standard and sample DNA are first heat denatured before they are adsorbed onto a 96-well DNA high-binding plate. The 6-4PP (FIG. 26A) and CPDs (FIG. 26B) present in the sample or standard are probed with an anti6-4PP or CPD antibody, followed by an HRP conjugated secondary antibody. The 6-4PP or CPD content in an unknown sample is determined by comparing with a standard curve that is prepared from predetermined CPD-DNA standards 1,000-1.56 ng/ml). […] The skin has important barrier, sensory, and immune functions, contributing to the health and integrity of the organism. […]
FIGS. 26A and 26B show the DNA damage that occurs following UV exposure with and without POH-LA conjugate treatment. […] The 6-4PP or CPD content in an unknown sample is determined by comparing with a standard curve that is prepared from predetermined CPD-DNA standards 1,000-1.56 ng/ml).

[6] = test system: follistatin, α6β4 integrin, Yap1; test: Staining of the skin for follistatin, α6β4 integrin and Yap1; assay type: in vivo
Text: Activins are members of the transforming growth factor-β family of growth and differentiation factors. The biological activity of activins is regulated by the secreted glycoprotein follistatin, which sequesters activins and thus inhibits their biological activities. Follistatin controls keratinocyte proliferation in skin wounds. Most importantly, it has been shown that limited activation of activin in keratinocytes is beneficial for the wound healing process. FIGS. 27A-C show the staining of the skin with activation of follistatin with POH-LA conjugate (FIG. 27A), POH, (FIG. 27B), and Linoleic Acid (FIG. 27C).
FIGS. 27D-F show the staining of the skin with activation of α6β4 integrin with POH-LA conjugate (FIG. 27D), POH, (FIG. 27E), and Linoleic Acid (FIG. 27F).
Yap1 is a critical modulator of epidermal stem cell proliferation and tissue expansion. α-catenin controls Yap1 activity and phosphorylation by modulating its interaction with 14-3-3 and the PP2A phosphatase. This aids in the identification of Yap1 as a determinant of the proliferative capacity of epidermal stem cells and as an important effector of a “crowd control” molecular circuitry in mammalian skin. FIGS. 27G-I show the staining of the skin with activation of Yap1 with POH-LA conjugate (FIG. 27G), POH, (FIG. 27H), and Linoleic Acid (FIG. 27I).

C=C(C)[C@@H]1CC=C(CO)CC1 [POH, perillyl alcohol]
cytotoxicity (colony forming assay) [1]: demonstrated cytotoxicity | cytotoxicity (colony forming assay) [2]: demonstrated cytotoxicity | cytotoxicity (MTT) [3]: demonstrated cytotoxicity | cytotoxicity (MTT) [4]: demonstrated cytotoxicity

C=C(C)[C@@H]1CC=C(COC(=O)CCCCCCC/C=C\C/C=C\CCCCC)CC1 [POH-LA conjugate, Octadeca-9,12-dienoic acid 4-isopropenyl-cyclohex-1-enylmethyl ester]
DNA damage (6-4PP and CPD content) [5]: less DNA damage | activation of cellular proteins [6]: enhance the activation of cellular proteins | skin regeneration via stem cell activation [6]: stimulate skin regeneration via stem cell activation
